Where a name gives a salt, the structure may show the parent alone.
These molecules were tested against T1, calcium channel (guinea-pig isolated ileal longitudinal smooth muscle) (Cavia porcellus, UniProt O35505) (assay: Calcium Channel Antagonist Activity in Guinea-Pig Isolated Ileal Smooth Muscle). Settings: not given.
T1 construct: The longitudinal smooth muscle is carefully separated from the underlying circular muscle layer; from tissue; host or cells: guinea-pig ileal longitudinal smooth muscle
T1 sequence (O35505 whole entry): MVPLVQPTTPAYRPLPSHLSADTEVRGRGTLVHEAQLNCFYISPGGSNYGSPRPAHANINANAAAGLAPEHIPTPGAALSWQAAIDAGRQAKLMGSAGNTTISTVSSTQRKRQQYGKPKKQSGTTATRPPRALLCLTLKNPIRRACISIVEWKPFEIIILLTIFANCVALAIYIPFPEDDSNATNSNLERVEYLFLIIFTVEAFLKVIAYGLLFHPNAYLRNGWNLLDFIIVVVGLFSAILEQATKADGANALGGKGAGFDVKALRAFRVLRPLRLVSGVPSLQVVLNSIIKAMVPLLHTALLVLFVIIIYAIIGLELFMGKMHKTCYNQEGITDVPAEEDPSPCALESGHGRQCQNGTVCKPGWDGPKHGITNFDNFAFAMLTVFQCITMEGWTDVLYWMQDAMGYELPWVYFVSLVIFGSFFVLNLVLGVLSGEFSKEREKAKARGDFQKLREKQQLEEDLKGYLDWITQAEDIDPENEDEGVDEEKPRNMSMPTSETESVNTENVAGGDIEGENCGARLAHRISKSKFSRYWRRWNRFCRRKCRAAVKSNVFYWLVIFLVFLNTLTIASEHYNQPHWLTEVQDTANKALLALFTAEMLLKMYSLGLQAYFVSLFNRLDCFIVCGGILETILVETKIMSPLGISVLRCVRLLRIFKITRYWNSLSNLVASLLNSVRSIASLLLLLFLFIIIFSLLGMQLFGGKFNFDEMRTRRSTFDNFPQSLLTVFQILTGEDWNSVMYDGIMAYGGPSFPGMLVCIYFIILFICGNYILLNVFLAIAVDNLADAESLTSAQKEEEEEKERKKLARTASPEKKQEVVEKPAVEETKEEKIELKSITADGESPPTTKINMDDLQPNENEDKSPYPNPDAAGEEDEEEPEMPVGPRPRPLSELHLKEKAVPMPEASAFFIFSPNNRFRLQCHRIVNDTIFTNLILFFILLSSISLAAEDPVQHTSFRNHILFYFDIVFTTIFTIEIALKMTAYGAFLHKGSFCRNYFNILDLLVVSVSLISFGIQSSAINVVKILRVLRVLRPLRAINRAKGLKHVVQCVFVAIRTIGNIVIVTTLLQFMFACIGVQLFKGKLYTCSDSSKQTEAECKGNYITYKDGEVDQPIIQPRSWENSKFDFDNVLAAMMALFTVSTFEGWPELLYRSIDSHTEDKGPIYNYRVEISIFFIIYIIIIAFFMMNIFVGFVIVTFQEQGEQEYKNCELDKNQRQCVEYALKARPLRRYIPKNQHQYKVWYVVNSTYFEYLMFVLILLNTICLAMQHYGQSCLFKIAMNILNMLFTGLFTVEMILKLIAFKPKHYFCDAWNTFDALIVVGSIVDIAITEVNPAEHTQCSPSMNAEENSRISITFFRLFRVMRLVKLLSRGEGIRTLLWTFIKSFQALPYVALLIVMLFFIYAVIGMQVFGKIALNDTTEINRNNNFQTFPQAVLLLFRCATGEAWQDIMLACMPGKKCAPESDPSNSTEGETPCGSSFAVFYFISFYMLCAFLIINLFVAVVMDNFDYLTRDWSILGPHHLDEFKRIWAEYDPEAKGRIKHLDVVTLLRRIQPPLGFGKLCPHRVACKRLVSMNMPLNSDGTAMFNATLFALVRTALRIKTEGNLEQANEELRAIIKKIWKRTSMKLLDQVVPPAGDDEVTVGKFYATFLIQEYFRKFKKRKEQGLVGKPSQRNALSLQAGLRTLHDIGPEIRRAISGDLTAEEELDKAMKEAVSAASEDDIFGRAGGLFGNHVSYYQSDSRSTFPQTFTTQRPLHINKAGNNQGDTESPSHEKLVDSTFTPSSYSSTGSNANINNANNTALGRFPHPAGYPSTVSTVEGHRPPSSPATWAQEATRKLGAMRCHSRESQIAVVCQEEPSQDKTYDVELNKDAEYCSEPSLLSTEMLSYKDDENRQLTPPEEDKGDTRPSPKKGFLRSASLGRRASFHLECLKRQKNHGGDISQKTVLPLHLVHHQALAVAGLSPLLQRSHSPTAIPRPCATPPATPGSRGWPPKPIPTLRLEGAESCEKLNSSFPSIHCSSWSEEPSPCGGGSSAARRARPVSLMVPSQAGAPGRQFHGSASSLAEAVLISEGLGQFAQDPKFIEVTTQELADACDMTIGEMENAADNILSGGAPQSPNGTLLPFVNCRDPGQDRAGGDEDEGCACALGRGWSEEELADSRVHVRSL
Type: cell-based
Description: Calcium Channel Antagonist Activity in Guinea-Pig Isolated Ileal Smooth Muscle.
Male albino guinea-pigs are sacrificed by stunning and exsanguination. The abdominal cavity is opened and the small intestine is removed, with about 10 cm of the terminal ileum being discarded. The tissue is placed in a dish containing Tyrode's solution (composition, mM: […]; KCl 2.68; NaHCO3 11.90; NaH2 PO4 0.36; MgCl2 0.98; CaCl2 1.77; dextrose 5.55), and cut into three to four segments. A glass rod (6 mm diameter) is carefully inserted into the lumen of each segment, and excess connective tissue or fat is removed. The longitudinal smooth muscle is carefully separated from the underlying circular muscle layer by gently stroking a moist cotton swab on a tangent to shallow, longitudinal incisions made parallel to the mesenteric attachment. Using gentle traction, and taking care to keep the segment moist at all times, the preparation is stripped from the remaining length of the ileal segment (Paton & Zar, J. Physiol. 194, 13; 1968).
Each preparation is suspended in a 10 mL jacketed glass tissue bath containing Tyrode's solution maintained at 37° C. and gassed with 5% CO2 in O2. The preparation is attached by silk thread to a force-displacement transducer. […] The initial resting tension is adjusted to 0.5 g and the preparation equilibrated for 55 minutes prior to experimentation. At the end of this period, the bathing solution is replaced with Ca^2+ -free Tyrode's solution. This solution is prepared by omitting CaCl2. The preparation is washed four times in Ca^2+ -free Tyrode 's to remove any Ca^2+ remaining in the bath, and allowed to equilibrate for a further 20 minutes.
Concentration-response curves to CaCl2 are obtained using the following procedure. Preparations are exposed to a depolarizing concentration of KCl (80 mM) for 6 minutes. At the end of this period CaCl2 is added to the bath cumulatively in the concentration range 0.2-8.0 mM. Successive additions of each Ca^2+ concentration are carried out only when the previous response has reached a plateau. When the maximum response has been attained the bath is again washed (five times) with Ca^2+ -free buffer, and the preparation re-equilibrated for approximately 15 minutes. A second Ca^2+ concentration-response curve is then obtained in the same manner. This second curve serves as control for that tissue.
Further curves are obtained in the presence of increasing concentrations of the test drugs. Where appropriate, the test drug is added to the bath immediately following addition of KCl, and 6 minutes later the concentration-response curve to Ca^2+ is obtained. Each test preparation is exposed to three different concentrations of a test drug.
For each ileal preparation, the control EC50 for Ca^2+ (the concentration producing 50% of the maximum response) is determined from the control concentration-response curve. Calcium blocking activity is defined as a Kb value (the concentration producing a two-fold dextral shift in the control curve), calculated from EC50 ratios in the absence and presence of test drugs.
Molecule `CCN(C)CC#CCCC1(C2(O)c3ccccc3-c3ccccc32)SCCCS1` [2-(5-Ethylmethylaminopent-3-ynyl)-2-(9-hydroxy-9H-fluoren-9-yl)-1,3-dithiane] has a Kb of 1230 ± 470 nM.

Same assay, conditions: Kb = concentration producing a two-fold dextral shift in the control CaCl2 concentration-response curve; KCl (80 mM) depolarized ileal smooth muscle; read-out: Calcium antagonist Kb
With `CN(C)CC#CCCC1(C2(O)c3ccccc3Oc3ccccc32)SCCCS1` [2-(5-Dimethylaminopent-3-ynyl)-2-(9-hydroxy-9H-xanthen-9-yl)-1,3-dithiane] the Kb was 1150 ± 200 nM.
Molecule `CCN(C)CC#CCCC1SCCCS1` [2-(5-Ethylmethylaminopent-3-ynyl)-1,3-dithiane Oxalate] has a Kb greater than 10000 nM.
In the case of `CCN(C)CC#CCCC1(C2(O)c3ccccc3Sc3ccc(Cl)cc32)SCCCS1` (stereo not shown) [2-(5-Ethylmethylaminopent-3-ynyl)-2-(2-chloro-9-hydroxy-9H-thioxanthen-9-yl)-1,3-dithiane], the Kb is reported as 2530 ± 1030 nM.
With `CCN(C)CC#CCCC1(C2(O)c3ccccc3Sc3ccccc32)SCCCS1` [2-(5-Ethylmethylaminopent-3-ynyl)-2-(9-hydroxy-9H-thioxanthen-9-yl)-1,3-dithiane] the Kb was 570 ± 120 nM.
With `CCN(C)CC#CCCC1(C2(O)c3ccccc3Oc3ccccc32)SCCCS1` [2-(5-Ethylmethylaminopent-3-ynyl)-2-(9-hydroxy-9H-xanthen-9-yl)-1,3-dithiane] the Kb was 1510 ± 530 nM.
Molecule `C(#CCN1CCCCC1)CCC1SCCCS1` [2-(5-Piperidinylpent-3-ynyl)-1,3-dithiane Oxalate] has a Kb greater than 10000 nM.
`OC1(C2(CCC#CCN3CCCCC3)SCCCS2)c2ccccc2Sc2ccc(Cl)cc21` (stereo not shown) [2-(5-Piperidinylpent-3-ynyl)-2-(2-chloro-9-hydroxy-9H-thioxanthen-9-yl)-1,3-dithiane] was tested, and the Kb was 6090 ± 1560 nM.
With `OC1(C2(CCC#CCN3CCCCC3)SCCCS2)c2ccccc2-c2ccccc21` [2-(5-Piperidinylpent-3-ynyl)-2-(9-hydroxy-9H-fluoren-9-yl)-1,3-dithiane] the Kb was 1000 ± 70 nM.
`OC1(C2(CCC#CCN3CCCCC3)SCCCS2)c2ccccc2Sc2ccccc21` [2-(5-Piperidinylpent-3-ynyl)-2-(9-hydroxy-9H-thioxanthen-9-yl)-1,3-dithiane] was tested, and the Kb was 3660 ± 2040 nM.
With `OC1(C2(CCC#CCN3CCCCC3)SCCCS2)c2ccccc2Oc2ccccc21` [2-(5-Piperidinylpent-3-ynyl)-2-(9-hydroxy-9H-xanthen-9-yl)-1,3-dithiane] the Kb was 399 ± 40 nM.
In the case of `C(#CCN1CCCC1)CCC1SCCCS1` [2-(5-Pyrrolidinylpent-3-ynyl)-1,3-dithiane Oxalate], the Kb is reported as greater than 10000 nM.
In the case of `CN(CC#CCCCC1SCCCS1)Cc1ccccc1` [2-(6-Benzylmethylaminohex-4-ynyl)-1,3-dithiane Oxalate], the Kb is reported as 4450 ± 160 nM.
`CCN(CC)CC#CCCCC1SCCCS1` [2-(6-Diethylaminohex-4-ynyl)-1,3-dithiane Oxalate] gave a Kb greater than 10000 nM.
With `CCN(CC)CC#CCCCC1(C2(O)c3ccccc3-c3ccccc32)SCCCS1` [2-(6-Diethylaminohex-4-ynyl)-2-(9-hydroxy-9H-fluoren-9-yl)-1,3-dithiane] the Kb was 810 ± 220 nM.
For `CCN(CC)CC#CCCCC1(C2(O)c3ccccc3Oc3ccccc32)SCCCS1` [2-(6-Diethylaminohex-4-ynyl)-2-(9-hydroxy-9H-xanthen-9-yl)-1,3-dithiane], the Kb was 170 ± 20 nM.
Molecule `CCCN(CC#CCCCC1(C2(O)c3ccccc3-c3ccccc32)SCCCS1)CCC` [2-(6-Dipropylaminohex-4-ynyl)-2-(9-hydroxy-9H-fluoren-9-yl)-1,3-dithiane] has a Kb of 560 ± 80 nM.
`CCCN(CC#CCCCC1(C2(O)c3ccccc3Sc3ccccc32)SCCCS1)CCC` [2-(6-Dipropylaminohex-4-ynyl)-2-(9-hydroxy-9H-thioxanthen-9-yl)-1,3-dithiane] showed a Kb of 770 nM.
`CCCN(CC#CCCCC1(C2(O)c3ccccc3Oc3ccccc32)SCCCS1)CCC` [2-(6-Dipropylaminohex-4-ynyl)-2-(9-hydroxy-9H-xanthen-9-yl)-1,3-dithiane] showed a Kb of 470 ± 150 nM.
`CCN(CC)CC#CCCC(O)(c1ccccc1)C1SCCCS1` (stereo not shown) [2-(6-diethylamino-1-hydroxy-1-phenylhex-4-ynyl)-1,3-dithiane oxalate] showed a Kb of 6710 ± 1450 nM.
Molecule `COc1ccc(CCN(C)CC#CCC2(c3ccccc3)SCCCS2)cc1OC` [2-[4-[2-(3,4-dimethoxyphenyl)ethyl]methylaminobut-2-ynyl]-2-phenyl-1,3-dithiane oxalate] has a Kb of 1170 ± 350 nM.
For `CN(CC#CCCC1SCCCS1)Cc1cccc2ccccc12` [2-[5-(1-Naphthylmethyl)methylaminopent-3-ynyl]-1,3-dithiane Oxalate], the Kb was greater than 10000 nM.
With `CN(CC#CCCC1SCCCS1)Cc1ccc2ccccc2c1` [2-[5-(2-Naphthylmethyl)methylaminopent-3-ynyl]-1,3-dithiane Oxalate] the Kb was 8330 ± 2040 nM.
Molecule `CN(CC#CCCC1SCCCS1)CCc1ccccc1` [2-[5-(2-Phenylethyl)methylaminopent-3-ynyl]-1,3-dithiane Oxalate] has a Kb of 2270 ± 730 nM.
`CN(CC#CCCC1(C(O)(c2ccccc2)C2CCCCC2)SCCCS1)CCc1ccccc1` (stereo not drawn) [2-[5-(2-Phenylethyl)methylaminopent-3-ynyl]-2-(α-cyclohexyl-α-hydroxybenzyl)-1,3-dithiane Oxalate] was tested, and the Kb was 3750 ± 1250 nM.
Molecule `CN(CC#CCCC1(C(O)(c2ccccc2)c2ccccc2)SCCCS1)CCc1ccccc1` [2-[5-(2-Phenylethyl)methylaminopent-3-ynyl]-2-(α-hydroxy-α-phenylbenzyl)-1,3-dithiane Oxalate Hemihydrate] has a Kb of 2650 ± 1210 nM.
`CN(CC#CCCC1(c2ccccc2)SCCCS1)CCc1ccccc1` [2-[5-(2-Phenylethyl)methylaminopent-3-ynyl]-2-phenyl-1,3-dithiane Oxalate] showed a Kb of 1740 ± 1080 nM.
For `CN(CC#CCCC1SCCCS1)CCCc1ccccc1` [2-[5-(3-Phenylpropyl)methylaminopent-3-ynyl]-1,3-dithiane Oxalate], the Kb was 2980 ± 590 nM.
In the case of `CN(CC#CCCC1(C(O)(c2ccccc2)c2ccccc2)SCCCS1)CCCc1ccccc1` [2-[5-(3-Phenylpropyl)methylaminopent-3-ynyl]-2-(9-hydroxy-9-phenylbenzyl)-1,3-dithiane Oxalate], the Kb is reported as 1630 ± 880 nM.
With `CN(CC#CCCC1(C2(O)c3ccccc3Sc3ccccc32)SCCCS1)CCCc1ccccc1` [2-[5-(3-Phenylpropyl)methylaminopent-3-ynyl]-2-(9-hydroxy-9H-thioxanthen-9-yl)-1,3-dithiane] the Kb was 4160 ± 860 nM.
With `CN(CC#CCCC1(C2(O)c3ccccc3Oc3ccccc32)SCCCS1)CCCc1ccccc1` [2-[5-(3-Phenylpropyl)methylaminopent-3-ynyl]-2-(9-hydroxy-9H-xanthen-9-yl)-1,3-dithiane] the Kb was 3090 ± 990 nM.
For `CN(CC#CCCC1(C2(O)c3ccccc3Sc3ccc(Cl)cc32)SCCCS1)CCCc1ccccc1` (stereo not shown) [2-[5-(3Phenylpropyl)methylaminopent-3-ynyl)-2-(2-chloro-9-hydroxy-9H-thioxanthen-9-yl)-1,3-dithiane Hemioxalate], the Kb was greater than 7000 nM.
For `CN1CCN(CC#CCCC2SCCCS2)CC1` [2-[5-(4-Methylpiperazinyl)pent-3-ynyl]-1,3-dithiane Dioxalate], the Kb was greater than 10000 nM.
Work on `CN1CCN(CC#CCCC2(C3(O)c4ccccc4Oc4ccccc43)SCCCS2)CC1` [2-[5-(4-Methylpiperazinyl)pent-3-ynyl]-2-(9-hydroxy-9H-xanthen-9-yl)-1,3-dithiane Dioxalate] yielded a Kb of 488 ± 30 nM.
For `CN(CC#CCCC1SCCCS1)CCCCc1ccccc1` [2-[5-(4-Phenylbutyl)methylaminopent-3-ynyl]-1,3-dithiane Oxalate], the Kb was 3430 ± 830 nM.
With `CN(CC#CCCC1SCCCS1)Cc1ccccc1` [2-[5-(Benzylmethylaminopent-3-ynyl]-1,3-dithiane Oxalate] the Kb was 8020 ± 2740 nM.
Work on `CN(CC#CCCC1(C(O)(c2ccccc2)c2ccccc2)SCCCS1)Cc1ccccc1` [2-[5-(Benzylmethylaminopent-3-ynyl]-2-(α-hydroxy-α-phenylbenzyl)-1,3-dithiane Oxalate Hemihydrate] yielded a Kb of 3170 ± 760 nM.
`COc1ccc(CCN(C)CC#CCCC2SCCCS2)cc1OC` [2-[5-[2-(3,4-Dimethoxyphenyl)ethyl]methylaminopent-3-ynyl]-1,3-dithiane Oxalate] showed a Kb of 2220 ± 70 nM.
With `OCCN1CCN(CC#CCCC2SCCCS2)CC1` [2-[5-[4-(2-Hydroxyethyl)piperazinyl]pent-3-ynyl]-1,3-dithiane Dioxalate] the Kb was greater than 10000 nM.
Work on `CN(CC#CCCCC1SCCCS1)CCc1ccccc1` [2-[6-(2-Phenylethyl)methylaminohex-4-ynyl]-1,3-dithiane Oxalate] yielded a Kb of 4180 ± 1540 nM.
